Results published in US10188733B2 (priority 2010, dated 2019).

System: VSV-specific neutralizing antibodies
Assay type: in vivo, mice
Details: for antigen-specific antibody titers / increase in adaptive immune responses following immunization: mouse, in vivo; for VSV antigen-specific neutralizing antibody titers: free bisphosphonate 2 mg footpad days -3 and -1, live VSV Indiana 10^4 pfu, serum day 8, vs control mice (FIG. 6)

| Compound | antigen-specific antibody titers | increase in adaptive immune responses following immunization | VSV antigen-specific neutralizing antibody titers |
| --- | --- | --- | --- |
| carrageenan | did not increase | failed to induce an increase |  |
| CC(O)(P(=O)(O)O)P(=O)(O)O [etidronate] |  |  | increased |
| dextran sulfate | did not increase | failed to induce an increase |  |
| NCCCC(O)(P(=O)(O)O)P(=O)(O)O [alendronate] |  |  | increased |
| NCCC(O)(P(=O)(O)O)P(=O)(O)O [pamidronate] |  |  | increased |
